Laboratory results: patent publication US4434151A, “Bifunctional chelating agents” (Medi-Physics, Inc., priority 1982, dated 1984)

Columns and labels:
[1] = Gamma camera imaging / regional areas of interest in rabbits after intravenous administration; format: in vivo, rabbits (New Zealand White); details: i.v.; for Gamma camera count densities (RAI): rabbits
Description: (§1) The ^99m Tc complex used for the animal studies was prepared in Example 6 following both methods of reduction, stannous chloride or dithionite. The ^99m Tc-MGHA complexes labeled by either reduction method were tested in animals. The mass concentrations of the ^99m Tc complex administered to test animals were approximately 0.04 mg/kg body weight for rabbits and 13.0 mg/kg body weight for mice. The radioactivity administered to rabbits and mice were about 0.5 mCi and 1.5 mCi respectively. The pH of the injectant solution was approximately 5 to 6.
Nonanesthetized and nonfasted male rabbits (New Zealand White) weighing 3.0-3.5 kg were restrained in dorsal recumbancy approximately 2-3 cm from the face of the gamma camera. After intravenous administration of 0.1 mL of the ^99m Tc-labeled complex solution in the marginal ear vein, anterior images were stored by a dedicated computer during injection, and 5, 10, 15, 20 and 30 minutes following administration.
The ^99m Tc-complex prepared via a dithionate reduction of Example 6 was administered to male albino rabbits weighing 3.0-3.5 kg. The drug was injected into the marginal ear vein. The mass of drug administered was equivalent to ~0.04 mg/kg while the volume injected was 0.1 mL. The administered dose was ~0.5 mCi. Each test animal was restrained in dorsal recumbancy approximately 2-3 cm from the face of the gamma camera. Immediately after injection, 100-500 k counts were obtained from the gamma camera and stored on floppy disc. The computer controlled the maximum number of counts that could be stored per image. Sequential images were obtained and stored on disc at 5, 10, 15, 20 and 30 minutes following administration.
After all images were stored, quantitative image analysis was utilized to obtain count densities in regional areas of interest (RAI). The RAIs were delineated as distinct anatomical structures. Three distinct areas were observed.
A ^99m Tc-complex prepared via a stannous chloride reduction of Example 6 was administtered to male albino rabbits weighing 3.0-3.5 kg. […]

[2] = Organ uptake (biodistribution) of 99mTc activity in mice after intravenous administration; format: in vivo; details: i.v.; for Organ uptake of 99mTc, Carcass / Organ uptake of 99mTc, Intestines / Organ uptake of 99mTc, Kidney / Organ uptake of 99mTc, Liver / Organ uptake of 99mTc, Lung / Organ uptake of 99mTc, Stomach / Organ uptake of 99mTc, Tail: average of four animals ± SD
Description: as §1
Nonfasted male mice (1CR strain) weighing 20-24 grams were administered in the tail vein with 0.2 mL of a ^99m Tc-complex solution. At 15, 30, 60 minutes post administration groups of four animals were sacrificed by cervical dislocation and selected organs removed for ^99m Tc assay in a gross ionization counting chamber. The percentage of the injected dose corrected for ^99m Tc decay was calculated for the various organs at each sacrifice time.
A ^99m Tc-MGHA complex prepared via a dithionite reduction of ^99m TcO4^- of Example 6 was administered to female albino mice weighing 20-24 gm. The test drug was administered through the lateral tail vein at a mass dose of approximately 13.0 mg/kg in a volume of 0.2 mL. The corresponding radioactive dose administered to each animal was 1.5 mCi. After injection, groups of four animals were sacrificed (cervical dislocation) at 15, 30 and 60 minutes. The liver, kidney, lung, heart, stomach and intestines (small and large) were removed and assayed for ^99m Tc activity in a gross ionization counting chamber. Also, the tails and remaining carcasses were individually assayed for ^99m Tc activity.
Knowing the amount of ^99m Tc activity administered (assaying for ^99m Tc in the syringe before and after injection) and the amount assayed in the various organs, the percentage of injected dose (% ID) was calculated as: [formula] All activities (Ci) were initially corrected for ^99m Tc decay back to a fixed starting time using the standard first order differential equation for decay correction (see below): […]
where N0 and N1 are initial and final activities (Ci) respectively. The half-life (T1/2) for ^99m Tc decay is 6.02 hr. The value of t is the elapsed time (hrs.) for the correction.
The results of ^99m Tc uptake in various organs and tissues in mice administered ^99m Tc-MGHA labeled via a dithionite reduction is given in Table 1.
A ^99m Tc-MGHA complex prepared via a stannous chloride reduction of 99mTcO.sbsb.4^- of Example 6 was administered to female albino mice weighing 20-24 gm. The same methods and procedures given in Example 19 were used to calculate the % ID for each organ.

[3] = mice, dithionite reduction, 15 min.
[4] = mice, dithionite reduction, 30 min.
[5] = mice, dithionite reduction, 60 min.

CNC(=O)C1CC[S][99Tc-]23(=[O])[S]CC[N]2CC(=O)[N]13 [^99m Tc-MGHA, [2-[[1-(2mercaptoethyl)-2-(methylamino)-2-oxoethyl]-N-(2-mercaptoethyl)glycinato-N,N',S,S']oxotechnetate-99m]
Distinct areas observed in quantitative image analysis (RAI) ([1]; male albino rabbits, dithionite reduction, ~0.5 mCi, up to 30 minutes): The left and right kidneys and the bladder were clearly defined | Gamma camera count densities (RAI) ([1]; SnCl2 reduction method): significant count densities in regions where the right and left kidneys were visualized | Gamma camera count densities (RAI) ([1]; dithionite reduction method): significant count densities in regions where the right and left kidneys were visualized | Excretion of activity from the body ([2]; mice): rapid excretion of activity from the body | Total remaining activity (% injected dose) ([2]; mice, 30 minutes): approximately one-half of the injected dose | Organ uptake of 99mTc, Carcass ([2]; mice, SnCl2 reduction, 15 min.): 17.4 ± 2.8 % Injected Dose | Organ uptake of 99mTc, Intestines ([2]; mice, SnCl2 reduction, 15 min.): 28.7 ± 6.1 % Injected Dose | Organ uptake of 99mTc, Kidney ([2]; mice, SnCl2 reduction, 15 min.): 3.3 ± .9 % Injected Dose | Organ uptake of 99mTc, Liver ([2]; mice, SnCl2 reduction, 15 min.): 13.3 ± 5.4 % Injected Dose | Organ uptake of 99mTc, Lung ([2]; mice, SnCl2 reduction, 15 min.): .9 ± .4 % Injected Dose | Organ uptake of 99mTc, Stomach ([2]; mice, SnCl2 reduction, 15 min.): .3 ± .4 % Injected Dose | Organ uptake of 99mTc, Tail ([2]; mice, SnCl2 reduction, 15 min.): 1.4 ± .7 % Injected Dose | Organ uptake of 99mTc, Carcass ([2]; mice, SnCl2 reduction, 30 min.): 5.7 ± 2.9 % Injected Dose | Organ uptake of 99mTc, Intestines ([2]; mice, SnCl2 reduction, 30 min.): 27.3 ± 7.0 % Injected Dose | Organ uptake of 99mTc, Kidney ([2]; mice, SnCl2 reduction, 30 min.): 1.6 ± .4 % Injected Dose | Organ uptake of 99mTc, Liver ([2]; mice, SnCl2 reduction, 30 min.): 6.1 ± .9 % Injected Dose | Organ uptake of 99mTc, Lung ([2]; mice, SnCl2 reduction, 30 min.): .2 ± .2 % Injected Dose | Organ uptake of 99mTc, Stomach ([2]; mice, SnCl2 reduction, 30 min.): .6 ± .9 % Injected Dose | Organ uptake of 99mTc, Tail ([2]; mice, SnCl2 reduction, 30 min.): .14 ± .2 % Injected Dose | Organ uptake of 99mTc, Carcass ([2]; mice, SnCl2 reduction, 60 min.): 12.4 ± 5.1 % Injected Dose | Organ uptake of 99mTc, Intestines ([2]; mice, SnCl2 reduction, 60 min.): 29.3 ± 10.4 % Injected Dose | Organ uptake of 99mTc, Kidney ([2]; mice, SnCl2 reduction, 60 min.): 2.3 ± .8 % Injected Dose | Organ uptake of 99mTc, Liver ([2]; mice, SnCl2 reduction, 60 min.): 7.7 ± 2.0 % Injected Dose | Organ uptake of 99mTc, Lung ([2]; mice, SnCl2 reduction, 60 min.): .6 ± .3 % Injected Dose | Organ uptake of 99mTc, Stomach ([2]; mice, SnCl2 reduction, 60 min.): .1 ± .2 % Injected Dose | Organ uptake of 99mTc, Tail ([2]; mice, SnCl2 reduction, 60 min.): .7 ± .3 % Injected Dose | Kidney uptake of activity over time ([2]; mice, at the various time intervals examined): declining at the various time intervals examined | Organ uptake of 99mTc, Carcass [2, 3]: 21.9 ± 2.9 % Injected Dose | Organ uptake of 99mTc, Intestines [2, 3]: 16.8 ± 3.0 % Injected Dose | Organ uptake of 99mTc, Kidney [2, 3]: 3.1 ± .6 % Injected Dose | Organ uptake of 99mTc, Liver [2, 3]: 11.3 ± 1.0 % Injected Dose | Organ uptake of 99mTc, Lung [2, 3]: .9 ± .2 % Injected Dose | Organ uptake of 99mTc, Stomach [2, 3]: .3 ± .01 % Injected Dose | Organ uptake of 99mTc, Tail [2, 3]: 1.7 ± 1.0 % Injected Dose | Organ uptake of 99mTc, Carcass [2, 4]: 13.4 ± 5.3 % Injected Dose | Organ uptake of 99mTc, Intestines [2, 4]: 20.5 ± 2.0 % Injected Dose | Organ uptake of 99mTc, Kidney [2, 4]: 3.4 ± .5 % Injected Dose | Organ uptake of 99mTc, Liver [2, 4]: 7.6 ± .9 % Injected Dose | Organ uptake of 99mTc, Lung [2, 4]: .3 ± .1 % Injected Dose | Organ uptake of 99mTc, Stomach [2, 4]: .1 ± .1 % Injected Dose | Organ uptake of 99mTc, Tail [2, 4]: .3 ± .1 % Injected Dose | Organ uptake of 99mTc, Carcass [2, 5]: 18.3 ± 2.5 % Injected Dose | Organ uptake of 99mTc, Intestines [2, 5]: 16.9 ± 1.4 % Injected Dose | Organ uptake of 99mTc, Kidney [2, 5]: 3.9 ± .6 % Injected Dose | Organ uptake of 99mTc, Liver [2, 5]: 10.2 ± 1.6 % Injected Dose | Organ uptake of 99mTc, Lung [2, 5]: .5 ± .3 % Injected Dose | Organ uptake of 99mTc, Stomach [2, 5]: .8 ± .9 % Injected Dose | Organ uptake of 99mTc, Tail [2, 5]: 1.1 ± .4 % Injected Dose | Kidney uptake ([2]; mice, sacrifice times greater than 15 minutes post injection): little kidney uptake | Clearance of 99mTc activity out of the body ([2]; mice, within the first 15 minutes): fast clearance out of the body within the first 15 minutes | Suggested route of 99mTc clearance ([2]; test animals, indirect evidence): possible kidney clearance
